The first test addresses Mcl-1 protein (UniProtKB Q07820) (Homo sapiens (Human), UniProt Q07820). Put plainly: Inhibition of Mcl-1 by the fluorescence polarisation assay (Example A, Method A). The format is binding. Particulars: fluorescence polarization assay. A digest of the protocol:
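Protein (5 nM) and fluorescein-tagged peptide tracer (1 nM) incubated with 11-point compound series for 2 h at room temperature in HEPES/NaCl/Tween 20 buffer, pH 7.4, 5% DMSO. Displacement read as decrease in polarisation; IC50 fitted by 4-parameter logistic, converted to Ki (cKi or eKi).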
A general note: Fluorescence polarisation rises when a labelled molecule tumbles more slowly, as on binding a larger partner.
Sequence of Mcl-1 protein (Q07820 whole entry): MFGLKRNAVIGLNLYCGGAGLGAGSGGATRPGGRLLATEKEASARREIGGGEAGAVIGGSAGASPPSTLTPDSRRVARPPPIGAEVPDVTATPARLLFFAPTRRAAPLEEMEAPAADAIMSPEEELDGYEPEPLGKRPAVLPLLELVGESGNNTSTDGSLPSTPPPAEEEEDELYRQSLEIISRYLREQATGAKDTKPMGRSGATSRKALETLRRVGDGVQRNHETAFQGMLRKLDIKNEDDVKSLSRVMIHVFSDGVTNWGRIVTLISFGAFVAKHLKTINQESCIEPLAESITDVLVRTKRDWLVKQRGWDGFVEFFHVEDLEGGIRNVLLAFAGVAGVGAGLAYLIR
Turning to `CC(F)(COc1ccnc2c1CCC2)CC1Cc2ccccc2[C@]12CC[C@@](Nc1cccc(Cl)c1)(C(=O)O)CC2` (stereo partly shown) [Example 607, (1r,4r)-4-(3-chloroanilino)-2′-{3-[(6,7-dihydro-5H-cyclopenta[b]pyridin-4-yl)oxy]-2-fluoro-2-methylpropyl}-2′,3′-dihydrospiro[cyclohexane-1,1′-indene]-4-carboxylic acid], the Ki (commonly the dissociation constant of the complex between target and ligand, obtained from inhibition or displacement) came out at 164 nM.

The next test deals with Cy5-labelled Mcl1 (amino acids 171-321) C286S protein (UniProtKB Q07820) (Homo sapiens (Human), UniProt Q07820, C286S). Put plainly: Inhibition of Mcl-1 by the fluorescence quenching assay (Example A, Method B). The format is binding.
Sequence of Cy5-labelled Mcl1 (amino acids 171-321) C286S protein (Q07820 171-321 C286S): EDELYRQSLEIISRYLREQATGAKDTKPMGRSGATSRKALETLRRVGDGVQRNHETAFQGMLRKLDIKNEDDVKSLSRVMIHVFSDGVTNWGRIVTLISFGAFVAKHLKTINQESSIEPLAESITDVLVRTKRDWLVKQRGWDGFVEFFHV
Details: not given
From the text: Fluorescence quenching assay measures the change fluorescence intensity of C-terminally Cy5-labelled Mcl1 (amino acids 171-321) C286S protein (UniProtKB® primary accession number Q07820) having an amino acid sequence:
which is linked at the C-terminus to the amino acid X which corresponds to a cysteine labelled on the sulfur with sulpho-Cyanine5 from Lumiprobe GmbH catalogue number 13380, upon binding of a C-terminally labelled peptide derived from PUMA (UniProtKB® primary accession number Q9BXH1) having an amino acid sequence:
which is linked at the C-terminus to the amino acid X′, where X′ is cysteine labelled on the sulfur with TQ5WS from AAT Bioquest catalogue number 2079.
The addition of a compound which binds competitively to the same site as the peptide will result in an increase in the fluorescence intensity of the protein due to displacement of the fluorescence quencher.
An 11-point serial dilution of each compound was prepared in DMSO, the final buffer conditions were 10 mM 4-(2-hydroxyethyl)-1-piperazineethanesulfonic acid [HEPES], 150 mM NaCl, 0.05% Tween 20, pH 7.4 and 5% DMSO. The final protein concentration in the assay was 1 nM with the peptide present at 10, 20 or 400 nM. The experiments were incubated for 2 hours at room temperature before fluorescence intensity was measured on a Biotek SynergyNeo plate reader (Excitation 620 nm, emission 680 nm). The dose response curves were plotted with XL-Fit software using a 4-Parameter Logistic Model (Sigmoidal DoseResponse Model) and the inhibitory concentrations that gave a 50% increase in fluorescence intensity was determined (IC50). The Ki values were determined from the IC50 values according to Cer et al, Nucleic Acids Res, 2009, 37 (WebServer issue): W441-W445. Inhibition constants (Ki) are determined from complete binding inhibition curves (cKi) or from estimated from incomplete binding inhibition curves (eKi) in most cases due to low activity.
As to `O=C(O)[C@]1(Nc2cccc(Cl)c2)CC[C@@]2(CC1)c1ccccc1CC2CC(COCCN1CCOCC1)COc1ccnc2c1CCC2` (mixture of isomers) [Example 496, (1r,4r)-4-(3-chloroanilino)-2′-(2-{[(6,7-dihydro-5H-cyclopenta[b]pyridin-4-yl)oxy]methyl}-3-[2-(morpholin-4-yl)ethoxy]propyl)-2′,3′-dihydrospiro[cyclohexane-1,1′-indene]-4-carboxylic acid], the Ki was found to be 1.8 nM.

Consider `O=C(O)[C@]1(Nc2cccc(Cl)c2)CC[C@@]2(CC1)c1ccccc1CC2CC(F)COc1ccnc2c1CCC2` (mixture of isomers) [Example 504, (1r,4r)-4-(3-chloroanilino)-2′-{3-[(6,7-dihydro-5H-cyclopenta[b]pyridin-4-yl)oxy]-2-fluoropropyl}-2′,3′-dihydrospiro[cyclohexane-1,1′-indene]-4-carboxylic acid], for which the inhibitory constant (Ki) stood at 29.9 nM.

Regarding `O=C(O)[C@]1(Nc2cccc(Cl)c2)CC[C@@]2(CC1)c1ccccc1CC2CC(CO)COc1ccnc2c1CCC2` (single isomer, unassigned) [Example 499, (1r,4r)-4-(3-chloroanilino)-2′-(2-{[(6,7-dihydro-5H-cyclopenta[b]pyridin-4-yl)oxy]methyl}-3-hydroxypropyl)-2′,3′-dihydrospiro[cyclohexane-1,1′-indene]-4-carboxylic acid], the Ki amounted to 74.1 nM.

`O=C(O)[C@]1(Nc2cccc(Cl)c2)CC[C@@]2(CC1)c1ccccc1CC2CC(CO)COc1ccnc2c1CCC2` (single isomer, unassigned) [Example 500, (1r,4r)-4-(3-chloroanilino)-2′-(2-{[(6,7-dihydro-5H-cyclopenta[b]pyridin-4-yl)oxy]methyl}-3-hydroxypropyl)-2′,3′-dihydrospiro[cyclohexane-1,1′-indene]-4-carboxylic acid]: the Ki is 15.5 nM.

In the case of `O=C(O)[C@]1(Nc2cccc(Cl)c2)CC[C@@]2(CC1)c1ccccc1CC2CC(COc1ccnc2c1CCCC2)C(F)F` (single isomer, unassigned) [Example 512, (1r,4r)-4-(3-chloroanilino)-2′-(3,3-difluoro-2-{[(5,6,7,8-tetrahydroquinolin-4-yl)oxy]methyl}propyl)-2′,3′-dihydrospiro[cyclohexane-1,1′-indene]-4-carboxylic acid], the Ki is 22.7 nM.

`O=C(O)[C@]1(Nc2cccc(Cl)c2)CC[C@@]2(CC1)c1ccccc1CC2CC(COc1ccnc2c1CCCC2)C(F)F` (single isomer, unassigned) [Example 513, (1r,4r)-4-(3-chloroanilino)-2′-(3,3-difluoro-2-{[(5,6,7,8-tetrahydroquinolin-4-yl)oxy]methyl}propyl)-2′,3′-dihydrospiro[cyclohexane-1,1′-indene]-4-carboxylic acid]: the inhibitory constant (Ki) was found to be 27.9 nM.

On to `CC(CC1Cc2ccccc2[C@]12CC[C@@](Nc1cccc(Cl)c1)(C(=O)O)CC2)C(C)Oc1ccnc2c1CCC2` (single isomer, unassigned) [Example 614, (1r,4r)-4-(3-chloroanilino)-2′-{3-[(6,7-dihydro-5H-cyclopenta[b]pyridin-4-yl)oxy]-2-methylbutyl}-2′,3′-dihydrospiro[cyclohexane-1,1′-indene]-4-carboxylic acid], for which the Ki was 123 nM.

As for `CC(CC1Cc2ccccc2[C@]12CC[C@@](Nc1cccc(Cl)c1)(C(=O)O)CC2)C(C)Oc1ccnc2c1CCC2` (single isomer, unassigned) [Example 615, (1r,4r)-4-(3-chloroanilino)-2′-{3-[(6,7-dihydro-5H-cyclopenta[b]pyridin-4-yl)oxy]-2-methylbutyl}-2′,3′-dihydrospiro[cyclohexane-1,1′-indene]-4-carboxylic acid], the inhibition constant Ki turned out to be 241 nM.

As for `CC(CC1Cc2ccccc2[C@]12CC[C@@](Nc1cccc(Cl)c1)(C(=O)O)CC2)C(C)Oc1ccnc2c1CCC2` (single isomer, unassigned) [Example 617, (1r,4r)-4-(3-chloroanilino)-2′-{3-[(6,7-dihydro-5H-cyclopenta[b]pyridin-4-yl)oxy]-2-methylbutyl}-2′,3′-dihydrospiro[cyclohexane-1,1′-indene]-4-carboxylic acid], the inhibition constant Ki stood at 93.5 nM.

In the case of `CC1CCN(C)c2nccc(OC[C@H](C)C[C@H]3Cc4ccccc4[C@]34CC[C@@](Nc3cccc(Cl)c3)(C(=O)O)CC4)c21` (single isomer, unassigned) [Example 644], the inhibition constant (Ki) is 2.8 nM.

As for `O=C(O)[C@]1(Nc2cccc(Cl)c2)CC[C@@]2(CC1)c1ccccc1C[C@H]2CCCOc1cccc2[nH]ccc12` [Example 485, (1r,2′R,4R)-4-(3-chloroanilino)-2′-{3-[(1H-indol-4-yl)oxy]propyl}-2′,3′-dihydrospiro[cyclohexane-1,1′-indene]-4-carboxylic acid], the inhibitory constant (Ki) stood at 45.5 nM.

Staying with this test, now noted: Ki determined from IC50.
In the case of `C[C@@H](COc1ccnc2ccsc12)CN1Cc2ccccc2[C@]12CC[C@@](Nc1cccc(Cl)c1)(C(=O)O)CC2` [Example 38, (1s,4S)-4-(3-chloroanilino)-2′-{(2R)-2-methyl-3-[(thieno[3,2-b]pyridin-7-yl)oxy]propyl}-2′,3′-dihydrospiro[cyclohexane-1,1′-isoindole]-4-carboxylic acid], the inhibition constant (Ki) was determined as 14.4 nM.

Turning to `C[C@@H](COc1cccc2[nH]ccc12)CN1Cc2ccccc2[C@]12CC[C@@](Nc1cccc(Cl)c1)(C(=O)O)CC2` [Example 39, (1s,4S)-4-(3-chloroanilino)-2′-{(2R)-3-[(1H-indol-4-yl)oxy]-2-methylpropyl}-2′,3′-dihydrospiro[cyclohexane-1,1′-isoindole]-4-carboxylic acid], the Ki amounted to 44.9 nM.

`N#Cc1cccc(N[C@]2(C(=O)O)CC[C@@]3(CC2)C(Br)=Cc2ccccc23)c1` [Example 82, (1s,4s)-2′-bromo-4-(3-cyanoanilino)spiro[cyclohexane-1,1′-indene]-4-carboxylic acid]: the inhibitory constant (Ki) was 437 nM.

As for `O=C(O)[C@]1(Nc2cccc(C(F)(F)F)c2)CC[C@]2(CC1)C(Br)=Cc1ccccc12` [Example 85, (1s,4s)-2′-bromo-4-[3-(trifluoromethyl)anilino]spiro[cyclohexane-1,1′-indene]-4-carboxylic acid], the inhibitory constant (Ki) is 424 nM.

As for `Cc1cccc(N[C@]2(C(=O)O)CC[C@@]3(CC2)C(Br)=Cc2ccccc23)c1` [Example 88, (1s,4s)-2′-bromo-4-(3-methylanilino)spiro[cyclohexane-1,1′-indene]-4-carboxylic acid], the Ki came out at 503 nM.

For `Cc1cc2c(cc1C)[C@]1(CC[C@@](Nc3cccc(Cl)c3)(C(=O)O)CC1)C(Br)=C2` [Example 140, (1s,4s)-2′-bromo-4-(3-chloroanilino)-5′,6′-dimethylspiro[cyclohexane-1,1′-indene]-4-carboxylic acid], the Ki turned out to be 57.4 nM.

Regarding `Cc1cccc2c1C=C(Br)[C@]21CC[C@](Nc2cccc(Cl)c2)(C(=O)O)CC1` [Example 141, (1s,4s)-2′-bromo-4-(3-chloroanilino)-4′-methylspiro[cyclohexane-1,1′-indene]-4-carboxylic acid], the Ki was found to be 91.6 nM.

Consider `O=C(O)[C@]1(Nc2cccc(Cl)c2)CC[C@]2(CC1)C(CCOc1ccnc3ccsc13)=Cc1ccccc12` [Example 178, (1r,4r)-4-(3-chloroanilino)-2′-{2-[(thieno[3,2-b]pyridin-7-yl)oxy]ethyl}spiro[cyclohexane-1,1′-indene]-4-carboxylic acid], for which the Ki turned out to be 37.1 nM.

With `O=C(O)[C@]1(Nc2cccc(Cl)c2)CC[C@]2(CC1)C(CCc1ccccn1)=Cc1ccccc12` [Example 199, (1r,4r)-4-(3-chloroanilino)-2′-[2-(pyridin-2-yl)ethyl]spiro[cyclohexane-1,1′-indene]-4-carboxylic acid], the Ki stood at 1250 nM.

Regarding `O=C(O)[C@]1(Nc2cccc(Cl)c2)CC[C@]2(CC1)C(CCc1ccccc1)=Cc1ccccc12` [Example 200, (1r,4r)-4-(3-chloroanilino)-2′-(2-phenylethyl)spiro[cyclohexane-1,1′-indene]-4-carboxylic acid], the Ki came to 139 nM.

(Values after US20240150293A1, “SPIROCYCLOHEXANE DERIVATIVES, PHARMACEUTICAL COMPOSITIONS CONTAINING THEM AND THEIR USES AS ANTI-APOPTOTIC INHIBITORS” (LES LABORATOIRES SERVIER, priority 2021, published 2024).)
